Results taken from patent publication US5208245A, “Dihydropyridine derivative” (Wakunaga Seiyaku Kabushiki Kaisha, priority 1990, dated 1993).

Legend:
[1] = system: spontaneous hypertensive rats; assay: Antihypertensive action in spontaneous hypertensive rats (SHR), oral administration; assay type: in vivo, rat; conditions: 10 mg/kg orally, (basal - lowest blood pressure)/basal x 100
Experimental: Test compounds were orally administered to spontaneous hypertensive rats (abbreviated as "SHR" hereinafter) to examine antihypertensive actions thereof.
Two to three days after the operation, the catheter was drawn out from the dorsum cervical part of the rat, and was connected to a blood-pressure measuring device (Polygraph RM-6000 manufactured by Nippon Koden K. K.). Blood pressure and heart rate were measured under the condition without anesthesia and restraint. The test compounds were suspended in 0.5% carboxymethylcellulose for oral administration. To the basal blood pressure obtained by measuring blood pressure over four hours, the lowest blood pressure decreased by the test compounds was used to determine the rate of blood-pressure decrease.
Rate of blood-pressure decrease (%)=(A-B)/A×100
The compound numbers correspond to those indicated in Examples.

[2] = system: longitudinal muscle of guinea pig ileum; assay: Calcium antagonism: inhibition of KCl-induced contraction of ileum longitudinal muscle; conditions: Cavia porcellus, 1 h; 10^-8 M; 60 min after addition; 80 mM KCl contraction = 100%; 37° C.; read-out: Inhibition rate
Experimental: A guinea pig having a body weight ranging from 350 g to 400 g was exsanguinated to death and laparotomized, to extract ileum. According to the method of Rosenberger et al. (Rosenberger et al., Can. J. Physiol. Pharmacol. 57, 333-347 (1979)), a sample of longitudinal muscle was prepared from the ileum. Then, a mixed gas consisting of 95% oxygen and 5% carbon dioxide was aerated, while the atmosphere was maintained at 37° C. The sample of the longitudinal muscle of the extracted ileum was placed in a magnus tube containing 20 ml of Tyrode solution, and suspended at 0.5 g of tension. As a comparison, 80 mM KCl was administered to contract the longitudinal muscle. Subsequently, 60 min after the addition of each of the test compounds (10^-8 M), the contraction with KCl was again induced. The level of the contraction obtained by the administration of 80 mM KCl was assigned to 100%, and the inhibition rate thereto was determined.

[3] = Acute toxicity test, intravenous, mice; conditions: mouse, in vivo, male ddY mice, observed two weeks
Experimental: Male ddY mice (5-7 weeks old) were divided into groups each consisting of 4 mice. The test compounds were dissolved in physiological saline containing 50% polyethylene glycol 400, which was then administered intravenously to the mice, and they were put under observation over two weeks. The analysis was done following the Van der Worden method.

Structure (SMILES)	Rate of blood pressure decrease [1] [%]	inhibition at 0.01 µM [2] [%]	LD50 at 336 h [3] [mg/kg]
CCOC(=O)C1=C(C)NC(C)=C(C(=O)OC2CC(C)(C)Oc3ccccc32)C1c1cccc(Cl)c1Cl (stereo not drawn) [Compound 27, 3-(3,4-dihydro-2,2-dimethyl-2H-benzo[b]pyran-4-yl)5-ethyl 1,4-dihydro-2,6-dimethyl-4-(2,3-dichlorophenyl)pyridine-3,5-dicarboxylate]	36.9	42	–
COC(=O)C1=C(C)NC(C)=C(C(=O)OC)C1c1ccccc1[N+](=O)[O-] [Nifedipine, reference compound]	24.3	98	–
COC(=O)C1=C(C)NC(C)=C(C(=O)OC2CC(C)(C)Oc3ccccc32)C1c1cccc(Cl)c1Cl (stereo not drawn) [Compound 21, 3-(3,4-dihydro-2,2-dimethyl-2H-benzo[b]pyran-4-yl)5-methtyl 1,4-dihydro-2,6-dimethyl-4-(2,3-dichorophenyl)pyridine-3,5-dicarboxylate]	37.3	69	29.7
COC(=O)C1=C(C)NC(C)=C(C(=O)OC2CCOc3ccccc32)C1c1cccc(Cl)c1Cl (stereo not drawn) [Compound 3]	35.1	81	–
